Laboratory results reported in publication PMC9699089 (Pathogens, 2022).

Tests used:
[1] = tested on: Plasmodium falciparum CQ-sensitive strain 3D7; assay: In vitro antiplasmodial activity, SYBR Green I fluorescence-based method, strain 3D7; type: cell-based; conditions: CQ-sensitive strain 3D7, 48 h incubation, mean of three independent experiments, read-out: P. falciparum Strains IC50 Values 3D7
Method in brief: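 P. falciparum cultured in human erythrocytes in RPMI with 0.5% Albumax I, hypoxanthine and gentamicin at 37 °C in a candle jar. Compounds tested from 39 nM to 40 µM for 48 h. Parasite DNA quantified by SYBR Green I fluorescence in saponin/Triton lysis buffer (ex 485/em 535 nm).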

[2] = tested on: L. donovani (MHOM/IN/00/DEVI) promastigotes; assay: In vitro antileishmanial activity on promastigotes, MTT assay; type: cell-based; conditions: Leishmania donovani, 72 h incubation, mean +/- SD of three independent experiments
Method in brief: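 Log-phase L. donovani MHOM/IN/00/DEVI promastigotes at 10^6 parasites/mL in Schneider's medium with 20% FCS were exposed to compounds for 72 h at 27 °C, final DMSO under 0.5%. Viability was read by MTT reduction over 4 h, absorbance 570 nm (630 nm reference). IC50 came from regression, three independent experiments.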

[3] = tested on: Plasmodium telomeric sequence FPf1T G-quadruplex; assay: FRET melting assay, FPf1T; type: binding, Plasmodium falciparum; conditions: compound 2 μM, oligonucleotide 0.2 μM, K+ conditions
Procedure: (§1) These were performed with dual-labeled oligonucleotides mimicking the Plasmodium telomeric sequences FPf1T [FAM-5′(GGGTTTA)3-GGG3′-TAMRA] and FPf8T [FAM-5′(GGGTTCA)3GGG3′-TAMRA], the Trypanosoma 9 and 11 chromosomic sequence FTrypBT (also named FEBR1T) [FAM-5′[…]3′-TAMRA], the human telomeric sequence F21T [FAM-(GGGTTA)3-GGG3′-TAMRA] and the human duplex sequence FdxT [FAM5′-[…]-hexaethyleneglycol-[…]3′-TAMRA] [27, 31, 47]. The oligonucleotides were pre-folded in 10 mM lithium cacodylate buffer (pH 7.2), with 10 mM KCl and 90 mM LiCl (K^+ condition). The FAM emissions were recorded at 516 nm using a 492-nm excitation wavelength in the absence and presence of a single compound as a function of temperature (25 to 95 °C) in 96-well microplates using a Stratagene MX3000P real-time PCR device at a rate of 1 °C∙min-1. Data were normalized between 0 and 1, and the required temperature for half-denaturation of oligonucleotides corresponding to the emission value of 0.5 was taken as the Tm. Each experiment was performed in duplicate with 0.2 µM of labeled oligonucleotide and 2 µM of compound under K^+ condition. For each compound, three independent experiments were carried out.

[4] = biological target: G-rich unfolded single-stranded sequence 24nonG4; assay: Native electrospray mass spectrometry, 24nonG4; type: binding; design: key to Kd 24nonG4, stoichiometry 2 (Kd2) / Kd 24nonG4, stoichiometry 1 (Kd1): n.b.: no binding detected; <LOQ: binding detected but below limit of quantitation; conditions: 100 mM TMAA, 1 mM KCl; for Kd: read-out: Kd 24nonG4, stoichiometry 1 (Kd1); for Kd 24nonG4, stoichiometry 2 (Kd2): 2:1 ligand:DNA complex
Procedure: (§2) Oligonucleotides were purchased in the lyophilized form from Eurogentec (RP-cartridge purification), and dissolved at 1 mM in pure water. TMAA (1 M) was purchased from Santa Cruz Biotechnology and potassium chloride (purity > 99.99%) from Sigma Aldrich (Sigma Aldrich, Saint-Quentin-Fallavier, France). The sample solutions contained 10 µM oligonucleotide and 10 (for CD only) or 20 µM ligand, in a 100 mM TMAA, 1mM KCl buffer. The solutions were incubated overnight at 4 °C before analysis.
(§3) The sample solutions were injected at a 10 µM strand concentration on an Agilent 6560 DTIMS-Q-TOF instrument (Agilent Technologies, Santa Clara, CA, USA), equipped with a dual-ESI source operated in the negative ion mode in soft conditions. The following parameters were used: fragmentor 320 V, trap fill time 1000 µs, trap release time 200 µs, trap entrance grid delta 2 V. The drift tube was filled with helium and the pressure was fixed at 3.89 ± 0.01 Torr (measured by a capacitance diaphragm gauge CDG-500, Agilent Technologies).
(§4) The MS data were extracted using the IM-MS Browser (v. B.08.00; Agilent Technologies). The peak area intensity of each species at the 5- charge state was extracted from their corresponding m/z range (encompassing potassium adducts), and baseline subtracted. The concentrations of all species (free DNA, free ligands, and complexes) and corresponding dissociation constants were determined as previously described.

[5] = tested on: human telomeric sequence F21T G-quadruplex; assay: FRET melting assay, F21T; type: binding; conditions: compound 2 μM, oligonucleotide 0.2 μM, K+ conditions
Procedure: as §1

[6] = biological target: duplex-forming sequence DK66; assay: Native electrospray mass spectrometry, DK66; type: binding; design: key to Kd DK66, stoichiometry 2 (Kd2) / Kd DK66, stoichiometry 1 (Kd1): n.b.: no binding detected; <LOQ: binding detected but below limit of quantitation; conditions: 100 mM TMAA, 1 mM KCl; for Kd: read-out: Kd DK66, stoichiometry 1 (Kd1); for Kd DK66, stoichiometry 2 (Kd2): 2:1 ligand:DNA complex
Procedure: as §2, §3, §4

Structure (SMILES) | IC50 [1] | IC50 [2] | ΔTm FPf1T [3] | Kd ([4]; 1:1 ligand:DNA complex) | Kd 24nonG4, stoichiometry 2 (Kd2) [4] | ΔTm F21T [5] | Kd ([6]; 1:1 ligand:DNA complex) | Kd DK66, stoichiometry 2 (Kd2) [6] | Kd 24nonG4, stoichiometry 1 (Kd1) ([4]; 1:1 ligand:DNA complex) | Kd DK66, stoichiometry 1 (Kd1) ([6]; 1:1 ligand:DNA complex)
c1ccc(-c2cc(CNCCCN3CCCC3)nc3c2ccc2c(-c4ccccc4)cc(CNCCCN4CCCC4)nc23)cc1 [Compound 1l] | 9.91 ± 1.73 µM | > 12.5 µM | 15.4 °C | 8 µM | <LOQ | 14.5 °C | 55 µM | n.b. | – | –
CN(C)CCCCNCc1cc(-c2ccccc2)c2ccc3c(-c4ccccc4)cc(CNCCCCN(C)C)nc3c2n1 [Compound 1c, 2,9-Bis[(4-dimethylaminobutyl)aminomethyl]-4,7-diphenyl-1,10-phenanthroline] | 10.3 ± 2.13 µM | > 12.5 µM | 8.9 °C | 9 µM | <LOQ | 13.2 °C | 110 µM | n.b. | – | –
CN(C)CCCCCNCc1cc(-c2ccccc2)c2ccc3c(-c4ccccc4)cc(CNCCCCCN(C)C)nc3c2n1 [Compound 1d, 2,9-Bis[(5-dimethylaminopentyl)aminomethyl]-4,7-diphenyl-1,10-phenanthroline] | 4.79 ± 0.5 µM | > 12.5 µM | 18.8 °C | 11 µM | <LOQ | 18.1 °C | 53 µM | n.b. | – | –
c1ccc(-c2cc(CNCCc3ccccn3)nc3c2ccc2c(-c4ccccc4)cc(CNCCc4ccccn4)nc23)cc1 [Compound 1m] | 0.47 ± 0.12 µM | > 12.5 µM | 1.3 °C | – | – | 1.0 °C | – | – | n.b. | n.b.
